In BindingDB's records for doi:10.1021/jm0502891 (Inotek Pharmaceuticals, 2005) one finds IC50 data, which are given here for three compounds.

Molecules are shown by their SMILES. pIC50: −log10 of the molar value.

Sequence of Poly [ADP-ribose] polymerase 1 (P09874 whole entry): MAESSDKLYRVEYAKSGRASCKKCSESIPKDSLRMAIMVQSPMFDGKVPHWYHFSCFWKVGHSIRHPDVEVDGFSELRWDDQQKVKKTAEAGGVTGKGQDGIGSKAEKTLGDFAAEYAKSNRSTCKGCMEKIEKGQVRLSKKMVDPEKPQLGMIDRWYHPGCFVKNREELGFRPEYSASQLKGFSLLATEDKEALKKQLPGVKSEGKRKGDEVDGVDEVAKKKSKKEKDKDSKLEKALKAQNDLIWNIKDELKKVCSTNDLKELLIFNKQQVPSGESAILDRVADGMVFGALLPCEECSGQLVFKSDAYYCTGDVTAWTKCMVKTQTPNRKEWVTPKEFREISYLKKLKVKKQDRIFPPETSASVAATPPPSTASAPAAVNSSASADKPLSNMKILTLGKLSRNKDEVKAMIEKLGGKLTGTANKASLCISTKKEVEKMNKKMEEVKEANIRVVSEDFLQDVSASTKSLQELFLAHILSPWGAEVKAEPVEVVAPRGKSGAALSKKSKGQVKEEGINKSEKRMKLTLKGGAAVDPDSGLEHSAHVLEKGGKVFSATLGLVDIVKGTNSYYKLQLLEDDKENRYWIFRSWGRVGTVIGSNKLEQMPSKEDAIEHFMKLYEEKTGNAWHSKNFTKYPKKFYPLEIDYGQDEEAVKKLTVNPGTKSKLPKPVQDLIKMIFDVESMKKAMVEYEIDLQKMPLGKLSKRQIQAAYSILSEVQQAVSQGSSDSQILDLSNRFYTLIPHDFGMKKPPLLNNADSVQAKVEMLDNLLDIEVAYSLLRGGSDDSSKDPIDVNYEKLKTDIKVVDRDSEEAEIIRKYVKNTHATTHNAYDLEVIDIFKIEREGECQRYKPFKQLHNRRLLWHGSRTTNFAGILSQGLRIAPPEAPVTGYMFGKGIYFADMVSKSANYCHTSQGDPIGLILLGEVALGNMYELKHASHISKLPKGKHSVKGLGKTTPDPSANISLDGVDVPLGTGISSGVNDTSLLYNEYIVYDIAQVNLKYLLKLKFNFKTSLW

The test concerns the target Poly [ADP-ribose] polymerase 1 (Homo sapiens, UniProt P09874). The test can be described thus: PARP ELISA Assay. Conditions: pH 8; 22 °C. On the procedure: The assay was performed in 96-well ELISA plates according to instructions provided with a commercially available PARP inhibition assay kit (Trevigen, Gaithersburg, MD). After incubation, incorporated biotin was detected by peroxidase-conjugated streptavidin and TACS Sapphire substrate.
Background: ELISA stands for enzyme-linked immunosorbent assay.
For orientation: pIC50 means the IC50 on a negative log10 scale, so that one unit is a factor of ten. Low readings indicate a high IC50, high ones a low IC50. Consider `C[N+]1(CCCNS(=O)(=O)c2ccc3c(c2)Cc2c-3[nH]c(=O)c3ccccc23)CCOCC1` [4-methyl-4-[3-({8-oxo-9-azatetracyclo[8.7.0.0^{2,7}.0^{11,16}]heptadeca-1(10),2(7),3,5,11(16),12,14-heptaene-14-}sulfonamido)propyl]morpholin-4-ium iodide], for which the pIC50 is 6.10.
In turn, `O=c1[nH]c2c(c3ccccc13)Cc1cc(S(=O)(=O)NN3CCOCC3)c(F)cc1-2` [13-fluoro-N-(morpholin-4-yl)-8-oxo-9-azatetracyclo[8.7.0.0^{2,7}.0^{11,16}]heptadeca-1(10),2(7),3,5,11(16),12,14-heptaene-14-sulfonamide] had a pIC50 of 6.35.
The value for `O=C(CCCN1CCOCC1)Nc1ccc2c(c1)-c1[nH]c(=O)c3ccccc3c1C2` [4-(morpholin-4-yl)-N-{8-oxo-9-azatetracyclo[8.7.0.0^{2,7}.0^{11,16}]heptadeca-1(10),2(7),3,5,11(16),12,14-heptaen-13-yl}butanamide] was 6.40.
